# Results: US8114843B2, “Photoreactive regulator of protein function and methods of use thereof” (The Regents of the University of California, priority 2005, dated 2012)
# “Also recorded” adds a separate entry of the source.
# Experiments:
# [1] = Photostationary state determination by NMR; format: physicochemical; conditions: MAG-1 conjugated to β-mercaptoethanol, D2O
# Procedure: Cis-trans photoisomerization of MAG-1 conjugated with β-mercaptoethanol (see Supplementary Methods online) was studied by ^1H NMR, with in situ irradiation of sample using a Polychrom V system monochromator (Till Photonics) containing a 150 W Xenon short arc lamp with an output range of 320-680 nm (29). The half-power bandwidth was 14 nm. A 500 μl aliquot of a 100 μM sample in D2O was prepared in a screw-capped 528-TR-7 NMR tube (Wilmad). A FT-600-UMT fiber optic cable (NA 0.39) (Thorlabs) was coupled at one end to the monochromator using a custom fitting and the other end inserted into the NMR tube a few millimeters above the solution. Each sample was irradiated at the desired wavelength for 30 minutes to reach the photostationary state and 480 scans were required to obtain reasonable signal-to-noise ratios. The output from the fiber optic cable between 340-480 nm ranged from 0.3-9.0 μW/cm^2. Data were processed by isolating aromatic cis-trans ^1H signals and summing their integrals to 1.0. All data were obtained in triplicate and averaged. This analysis will be detailed further in a future paper by Banghart, M. R. et al. (in preparation).
# [2] = system: hippocampal neurons; experiment: Live-Dead viability/cytotoxicity assay after MAG exposure; conditions: 12 hours continuous exposure, several concentrations; listed as MAG
# Procedure: Neuronal survival following 12 hours of continuous exposure to several concentrations of MAG was also examined.
# [3] = biological target: T1, iGluR6 (Rattus norvegicus, UniProt P42260); experiment: Calcium imaging of iGluR6 activity in HEK293 cells; format: cell-based
# T1 construct: expressed in transfected cells; host or cells: HEK293
# Procedure: HEK293 cells were plated at approximately 3×10^6 cells/ml on poly-L-lysine-coated glass coverslips (Deutsche Spiegelglas, Carolina Biological) and maintained in DMEM with 5% fetal bovine serum, 0.2 mg/ml streptomycin, and 200 U/ml penicillin at 37° C. Cells were transiently transfected with various plasmids using lipofectamine 2000 (Invitrogen). The amount of total transfected iGluR6 DNA and enhanced yellow fluorescent protein (EYFP) fusion DNA per well was fixed at 4 μg and 200 ng, respectively. All recordings were carried out 36 to 48 h after transfection.
# —Cells were washed in PBS and loaded with 5 μM FURA-2-AM (Molecular Probes) for 30 min. […] Fluorescence was monitored on an inverted microscope system (Nikon). […] L-Glutamate was applied as reported in text and figures. The results are representative data from multiple cells in at least two independent cultures.
# [4] = Solubility; format: physicochemical; conditions: for solubility: read-out: solubility limit
# [5] = system: cultured hippocampal neurons; experiment: Live/Dead assay after PAL treatment; format: cell-based; conditions: 200 μM
# Text: Live/Dead assay. After PAL treatment, hippocampal neurons were processed for the live dead assay (Molecular Probes) according to the manufacturer's instructions. Cells were counted in 4-8 fields for each treatment condition.
# [6] = biological target: T2, wild-type Shaker (E422) (Drosophila melanogaster, UniProt P08510, DEL6-46); experiment: PAL photoswitching, whole-cell patch clamp in HEK293 cells; format: cell-based
# T2 construct: expressed in transfected cells; host or cells: HEK293
# Procedure: Cell culture and transfection. HEK293 cells were grown in DMEM containing 5% fetal bovine serum, at 37° C., 7% CO2. For electrophysiology, cells were plated at 12×10^5 cells/cm^2 on poly-L-lysine coated coverslips and transfected using the calcium phosphate method. Recordings were performed 24-36 hours after transfection.
# (§1) PAL attachment. HEK293 and hippocampal cells were rinsed in extracellular solution containing in mM: 138 NaCl, 1.5 KCl, 1.2 MgCl2, 2.5 CaCl2, 5 HEPES, 10 glucose and incubated at 37° C. in the dark with 200-250 μM PAL for 15 minutes. For slices, AAQ was diluted to 200 μM in aCSF and treatment was performed in the dark at room temperature for 10 minutes.
# (§2) Electrophysiological recording. Recordings from HEK293 and hippocampal neurons were made in the whole-cell patch clamp configuration using a PC-501A amplifier (Warner Instruments). Pulse protocols and measurements were carried out with pCLAMP and a Digidata 1322 interface (Axon Instruments). For voltage-clamp experiment, cells were held at −70 mV. Data was recorded at 20 kHz and filtered at 2 kHz. Recording pipettes with 2.5-4 MΩ resistance were filled with intracellular solution containing in mM: 10 NaCl, 135 K-gluconate, 10 HEPES, 2 MgCl2, 2 MgATP, 1 EGTA, pH 7.4.
# Illumination was provided using a xenon lamp (Sutter Instruments) with narrow band pass filters (380 BP10 for UV and 500 BP5 for visible light respectively). Excitation filters were changed using a lambda 10-2 filter changer (Sutter Instruments) controlled via pCLAMP software.
# Percent photoswitching was defined as the difference between current in UV and visible light divided by current in UV. All data shown in bar graphs are averages±standard error of the mean.
# [7] = system: Purkinje neurons; experiment: Loose-patch extracellular recording in cerebellar slices; format: cell-based, rat; conditions: gabazine added
# Procedure: Brain Slice Preparation. Parasagittal cerebellar slices were prepared using standard techniques approved by the UCLA Animal Care Committee. […] PAL attachment. […] For cerebellar slices, neuronal cell bodies were visualized using an upright microscope with a 40× water immersion lens and equipped with an infrared-DIC enhancement. Loose-patch extracellular recordings were performed using an Axopatch 200B amplifier (Axon Instruments). Electrophysiological recordings were filtered at 1 KHz and digitized at 2-4 KHz. Pipettes were typically 1.4-2.0 MΩ for recordings from PNs and 3.0-3.5 MΩ for interneurons and filled with aCSF. […] All recordings were performed at room temperature. […] Excitation filters were changed using a lambda 10-2 filter changer (Sutter Instruments) controlled via pCLAMP software.
# [8] = system: voltage-gated outward current (endogenous K+ channels) in cultured hippocampal neurons; experiment: Photocontrol of K+ current in cultured hippocampal neurons; format: cell-based, rat; conditions: 200 μM, 15 min in the dark
# Procedure: Hippocampal neurons were prepared from neonatal Sprague-Dawley rats according to standard procedures (Goslin) and grown on poly-L-lysine coated coverslips in MEM supplemented with 5% fetal bovine serum, B27 (Invitrogen), glutamine and serum extender (BD Biosciences). Animal care and experimental protocols were approved by the UC Berkeley Animal Care and Use Committee. Recordings were performed 9-16 days after plating. The Shaker construct also contains an N-terminal deletion (Δ6-46) to minimize fast inactivation.
# as §1
# as §2, with “Recording pipettes with 2.5-4 MΩ resistance were filled with intracellular solution containing in mM: 10 NaCl, 135 K-gluconate, 10 HEPES, 2 MgCl2, 2 MgATP, 1 EGTA, pH 7.4.” left out
# [9] = biological target: Shaker H4 (Δ6-46, E422C, T449V) (Drosophila melanogaster, UniProt P08510, DEL6-46/E422C/T449V); experiment: Patch recordings of MAL-AZO-QA-modified Shaker channels in Xenopus oocytes; format: cell-based
# Procedure: Xenopus oocytes were injected with […] of mRNA encoding Shaker H4, with the following mutations: Δ6-46, E422C, T449V. […] Devitillenized oocytes were recorded from 2-10 days post-injection using standard patch-clamp methods. For outside-out patches, glass patch pipettes (2-4 MΩ) were filled with a solution containing (in mM) 100 KCl, 10 HEPES, 0.1 CaCl2, 0.5 MgCl2, and 10 EGTA, while the bath contained 10 KCl, 90 NaCl, 10 HEPES, 0.1 CaCl2, 0.5 MgCl2, and 10 EGTA. For inside-out patches, patch pipettes and bath both contained 100 KCl, 10 HEPES, 0.1 CaCl2, 0.5 MgCl2, and 10 EGTA. The pH of all solutions was 7.1. Solid MAL-AZO-QA was dissolved as a concentrated stock solution in DMSO and stored at −20° C. until the day of use. Stocks were diluted into oocyte bath solution to final concentrations of 10 μM or 100 μM. […] Pulse protocols and measurements were performed with pCLAMP software, a DigiData 1200 series interface, and a PC-505 amplifier (Warner Instruments). Samples were taken at 10 kHz and the data was filtered at 1 kHz. Patches were held at −90 mV, pulsed to −100 mV for 60 msec to monitor leak, and pulsed to −20 mV for 30-100 msec at 1 Hz to elicit Shaker currents. The peak of the Shaker currents was measured to minimize the contribution of slow inactivation. Patches with a leak conductance>100 pS were not included in analysis.
# Discrete wavelengths of light (+/−10 nm) were focused on patches through a quartz coverslip with a Fluor 20×, 0.5 NA objective lens (Nikon). Output intensity was measured for wavelengths between 300 and 600 nm. The measured output intensities for wavelengths between 340-600 nm ranged from 0.324e-8 to 6.23e-8 W/cm^2. Differences in light intensities at different wavelengths were taken into account when determining action spectra for channel block and unblock.
# [10] = system: hippocampal pyramidal neurons transfected with the multiply-mutated Shaker channel; experiment: Current clamp recordings from cultured hippocampal neurons treated with MAL-AZO-QA; format: cell-based, rat
# Procedure: Primary dissociated hippocampal cultures were prepared from E18-19 Sprague-Dewey rat embryos and grown on glass cover slips in serum-containing media and incubated in 7% CO2 in air at 37° C. Cells were co-transfected with GFP along with the modified Shaker channel described above with additional L366A and V454L mutations. Transfections with Lipofectamine 2000™ were performed at 12-14 DIV. About 10% of the cultured neurons appeared GFP-positive at 2-3 days after transfection. Coverslips containing the neurons were treated at 37° C. for 15 min with 300 μM MAL-AZO-QA in an extracellular recording solution containing (in mM) 135 NaCl, 5 KCl, 1.2 MgCl2, 5 HEPES, 2.5 CaCl2, and 10 glucose at pH 7.4. Patch pipettes (7-10 MΩ) were filled with 10 NaCl, 135 K-gluconate, 10 HEPES, 2 MgCl2, 2 Mg-ATP, and 1 EGTA at pH 7.4. After washout of MAL-AZO-QA with extracellular solution, membrane potential was recorded at room temperature under whole-cell current clamp with an AXOPATCH 200A amplifier (Axon Instruments) and filtered at 10 kHz. Initial recordings were made at resting potential to evaluate the effects of light on spontaneous activity. In experiments where we wanted to quantify the effect of light on firing (e.g. FIG. 4b), cultures were treated with 6-cyano-7-nitroquinoxaline-2,3-dione (CNQX) (1 μM) and bicuculline (10 μM) to silence synaptic activity. Baseline currents were adjusted to set the membrane potential at −50 mV before depolarizing current steps ranging from 0.01-0.03 nA were applied to evoke action potentials. Cells were irradiated with a Lambda-LS illuminator containing a 125 watt xenon arc lamp (Sutter Instruments Company), equipped with narrow bandpass (+/−10 nm) filters through a Fluor 20×, 0.5 NA objective lens (Nikon). Variability among data is expressed as mean+/−SEM, unless noted otherwise.
# T1 sequence (P42260 32-908): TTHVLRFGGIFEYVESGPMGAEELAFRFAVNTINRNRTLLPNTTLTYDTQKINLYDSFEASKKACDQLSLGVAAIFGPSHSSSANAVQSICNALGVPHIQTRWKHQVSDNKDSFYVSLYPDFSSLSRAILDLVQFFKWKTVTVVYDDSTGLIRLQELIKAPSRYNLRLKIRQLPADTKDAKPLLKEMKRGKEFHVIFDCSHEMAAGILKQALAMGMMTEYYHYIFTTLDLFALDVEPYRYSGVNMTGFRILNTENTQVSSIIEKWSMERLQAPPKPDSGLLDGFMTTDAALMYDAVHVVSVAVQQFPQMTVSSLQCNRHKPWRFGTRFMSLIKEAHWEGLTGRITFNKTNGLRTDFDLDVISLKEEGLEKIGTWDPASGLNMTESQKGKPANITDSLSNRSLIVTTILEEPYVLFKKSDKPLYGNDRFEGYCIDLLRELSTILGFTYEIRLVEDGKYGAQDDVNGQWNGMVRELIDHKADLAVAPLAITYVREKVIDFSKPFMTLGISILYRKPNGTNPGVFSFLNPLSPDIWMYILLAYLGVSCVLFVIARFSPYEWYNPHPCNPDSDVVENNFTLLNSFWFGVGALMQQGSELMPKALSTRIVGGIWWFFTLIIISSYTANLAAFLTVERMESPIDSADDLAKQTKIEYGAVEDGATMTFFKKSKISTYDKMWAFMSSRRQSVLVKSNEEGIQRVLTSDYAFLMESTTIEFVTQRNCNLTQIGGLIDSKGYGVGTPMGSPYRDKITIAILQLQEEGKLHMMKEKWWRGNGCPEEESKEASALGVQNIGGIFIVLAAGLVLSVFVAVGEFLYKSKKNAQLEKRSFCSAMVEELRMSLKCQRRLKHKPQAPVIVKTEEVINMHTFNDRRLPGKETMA
# Sequence of Shaker H4 (Δ6-46, E422C, T449V) (P08510 other isoform, or with tags, fused parts or gaps DEL6-46/E422C/T449V): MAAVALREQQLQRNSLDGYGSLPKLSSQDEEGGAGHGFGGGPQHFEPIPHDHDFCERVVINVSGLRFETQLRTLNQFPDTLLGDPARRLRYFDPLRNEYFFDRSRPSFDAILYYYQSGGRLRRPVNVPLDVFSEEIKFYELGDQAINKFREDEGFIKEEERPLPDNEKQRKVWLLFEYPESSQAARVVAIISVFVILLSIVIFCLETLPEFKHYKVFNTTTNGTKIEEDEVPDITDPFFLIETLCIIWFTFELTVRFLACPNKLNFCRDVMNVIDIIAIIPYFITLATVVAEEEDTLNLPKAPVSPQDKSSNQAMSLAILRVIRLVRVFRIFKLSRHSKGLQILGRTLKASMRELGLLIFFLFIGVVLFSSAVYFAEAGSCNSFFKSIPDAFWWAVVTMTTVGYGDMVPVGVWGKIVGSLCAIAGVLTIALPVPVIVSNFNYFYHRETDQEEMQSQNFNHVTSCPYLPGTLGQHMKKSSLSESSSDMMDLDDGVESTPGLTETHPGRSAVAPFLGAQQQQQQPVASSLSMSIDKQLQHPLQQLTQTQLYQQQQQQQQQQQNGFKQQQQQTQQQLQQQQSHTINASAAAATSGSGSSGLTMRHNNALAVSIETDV
# T2 sequence (P08510 other isoform, or with tags, fused parts or gaps DEL6-46): as the sequence (P08510 other isoform, or with tags, fused parts or gaps DEL6-46/E422C/T449V) above, with C381E, V408T counted along it
compound,measurement,setting,value
N[C@@H](CC(CCCC(=O)NCC(=O)Nc1ccc(/N=N/c2ccc(NC(=O)CN3C(=O)C=CC3=O)cc2)cc1)C(=O)O)C(=O)O (stereo in doubt) [MAG-1],fraction in the cis-state,[1]; 380 nm,93.0±0.6%
same,fraction in the trans-state,[1]; 500 nm,83.0±0.6%
same,cell death compared with controls,[2],no difference; also recorded: no increase in cell death
same,"light sensitivity conferred (Ca2+ increase at 380 nm, decrease at 500 nm)",[3]; wildtype iGluR6 (WT),not on wildtype iGluR6
same,solubility,[4],0.2 mM
CC[N+](CC)(CC)CC(=O)Nc1ccc(/N=N/c2ccc(NC(=O)CCl)cc2)cc1 [CAQ],death of neurons,[5]; 15 min,~10%
same,loss of neurons,[5]; 60 min,~15%
same,water solubility compared with AAQ,[4],less water-soluble
same,light-sensitivity conferred on channel,[6],conferred light-sensitivity
"O=c1[nH]c2cc([N+](=O)[O-])c([N+](=O)[O-])cc2[nH]c1=O [DNQX, 6,7-dinitroquinoxaline-2,3-[1H,4H]-dione, reference compound]",solubility,[4],4 mM
"COc1ccc(-c2ccc(=N)n(CCCC(=O)O)n2)cc1 [Gabazine, reference compound]",basal firing rate of Purkinje cells,[7],~15 Hz
CC[N+](CC)(CC)CC(=O)Nc1ccc(/N=N/c2ccc(NC(=O)CN3C(=O)C=CC3=O)cc2)cc1 [MAL-AZO-QA],percent of the outward current that could be photoswitched,[8],2±5%
same,wavelength most effective in unblocking channels,"[9]; action spectrum, inside-out patches",380 nm
same,return of unblocked channels to the blocked state in the dark,[9]; dark,> 5 min
same,τ1 of current block in dark (biexponential),[9]; dark,0.49 min
same,τ2 of current block in dark (biexponential),[9]; dark,4.79 min
same,current unblocked by ultraviolet light,"[9]; inside-out patch, oocytes treated with 100 μM for 30 min",≤ 1 nA
same,reduction of voltage-gated Shaker current,"[9]; outside-out patch, 10 μM, over 4 min",> 60%
same,time for unblock and re-block to nearly reach steady-state,[9]; standard epifluorescence illumination,≤ 5 s
same,time to silence spontaneous action potentials,[10]; 390 nm light,≤ 3 s
same,decrease in number of action potentials elicited by a depolarizing step,"[10]; 390 nm light, n=4",79%
same,onset of restored activity in the dark after silencing,[10]; dark,> 30 s
same,effect of light on treated neurons expressing GFP without the Shaker channels,[10]; n=4,no effect
Cl.N[C@@H](C[C@@H](CCCC(=O)NCC(=O)Nc1ccccc1)C(=O)O)C(=O)O [tether model 3],maximal response compared with saturating glutamate,[3],similar
same,EC50,"[3]; FURA-2-AM calcium imaging, HEK293, read-out: EC50 for activating iGluR6",180 µM
same,solubility,[4],10 mM
